The values that follow come from patent publication US10323027B2, “2,3-dihydro-4H-1,3-benzoxazin-4-one derivatives as modulators of cholinergic muscarinic M1 receptor” (Takeda Pharmaceutical Company Limited, priority 2015, dated 2019).

This experiment has as its target T1, human M1 receptor (hCHRM1) (Homo sapiens, UniProt P11229).
T1 construct: expressed in transfected cells
T1 sequence (P11229 1-460): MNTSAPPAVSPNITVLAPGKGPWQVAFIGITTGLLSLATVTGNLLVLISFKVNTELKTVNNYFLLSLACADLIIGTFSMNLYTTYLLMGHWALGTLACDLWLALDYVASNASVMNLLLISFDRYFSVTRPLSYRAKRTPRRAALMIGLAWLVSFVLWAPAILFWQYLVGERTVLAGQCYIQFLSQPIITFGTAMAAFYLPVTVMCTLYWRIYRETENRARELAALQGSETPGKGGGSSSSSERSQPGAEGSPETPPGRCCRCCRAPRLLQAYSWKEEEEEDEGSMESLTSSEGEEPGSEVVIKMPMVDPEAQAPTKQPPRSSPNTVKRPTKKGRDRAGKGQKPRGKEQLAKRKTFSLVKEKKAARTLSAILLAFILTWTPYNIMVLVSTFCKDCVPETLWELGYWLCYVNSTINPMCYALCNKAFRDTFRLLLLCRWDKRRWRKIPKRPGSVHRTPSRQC
In words: Measurement of M1 receptor positive allosteric modulator (M1PAM) activity, Ca2+ fluorescence by FLIPRtetra (Experimental Example 1). In kind it is cell-based. The conditions noted are these: for activity (%) at 10 μM: 10 μM test compound, 100% = acetylcholine 1 μM, 0% = DMSO; for EC50: inflection point of concentration-dependent curve, in presence of acetylcholine at EC20 (0.8-1.0 nM), CHO-K1 cells expressing hCHRM1, read-out: IP value. As for the experimental part:
Measurement of M1 Receptor Positive Allosteric Modulator (M1PAM) Activity
The activity of a test compound in the presence of acetylcholine at EC20 concentration (final concentration 0.8-1.0 nM), which affords an action corresponding to about 20% of the maximum activity, was measured as PAM activity. The method is as follows. CHO-K1 cells stably expressing a human M1 receptor (hCHRM1) were plated on a 384-well black clear bottom plate (BD Falcon) at 5,000 cells/well, and cultured in an incubator at 37° C., 5% CO2 for 1 day. The medium in the cell plate was removed, and a dye solution (prepared by adding Recording medium (DOJINDO LABORATORIES) to a final concentration of 1×concentration, Fluo-4 AM (DOJINDO LABORATORIES) to a final concentration of 2.5 μg/mL, Pluronic F127 (DOJINDO LABORATORIES) to a final concentration of 0.08%, and probenecid (DOJINDO LABORATORIES) to a final concentration of 1.25 mM to assay buffer (HBSS (Invitrogen), 20 mM HEPES (Invitrogen), 0.1% BSA (Wako Pure Chemical Industries, Ltd.))) was added at 30 μL/well. The cells were left standing in the incubator at 37° C., 5% CO2 for 30 min, and further left standing at room temperature for 30 min. A test compound prepared by diluting with assay buffer containing 3.2-4.0 nM acetylcholine was added at 10 μL/well, and the fluorescence was measured by FLIPRtetra (Molecular Devices) for 1 min every 1 second. With the definition that the amount of change in the fluorescence on addition of acetylcholine (final concentration 1 μM) is 100% and that on addition of DMSO instead of a test compound is 0%, the activity (%) of the test compound was calculated, and the inflection point in the concentration-dependent curve of the test compound was calculated as IP values.

Consider `Cc1c(Cc2ccc(C#N)cc2)cc2c(c1F)OCN([C@H]1CCC[C@@H]1O)C2=O` [Example 12, 4-((8-fluoro-3-((1S,2S)-2-hydroxycyclopentyl)-7-methyl-4-oxo-3,4-dihydro-2H-1,3-benzoxazin-6-yl)methyl)benzonitrile], for which the “activity (%) at 10 μM” value worked out at 89% and the EC50 was found to be 15 nM.

Take `Cc1c(Cc2ccc(-c3cnn(C)c3)nc2)cc2c(c1C)OCN([C@H]1CCCC[C@@H]1O)C2=O` (relative stereo) [Example 49, 3-(trans-2-hydroxycyclohexyl)-7,8-dimethyl-6-((6-(1-methyl-1H-pyrazol-4-yl)pyridin-3-yl)methyl)-2,3-dihydro-4H-1,3-benzoxazin-4-one]: the “activity (%) at 10 μM” value stood at 108% and the EC50 worked out at 8 nM.

As for `Cc1ccc(Cc2cc3c(c(Cl)c2C)OCN([C@H]2CCC[C@@H]2O)C3=O)cn1` [Example 25, 8-chloro-3-((1S,2S)-2-hydroxycyclopentyl)-7-methyl-6-((6-methylpyridin-3-yl)methyl)-2,3-dihydro-4H-1,3-benzoxazin-4-one], the “activity (%) at 10 μM” value is recorded as 101% and the EC50 is 4.2 nM.

On to `Cc1c(Cc2ccc(-n3cccn3)nc2)cc2c(c1Cl)OCN([C@H]1CCC[C@@H]1O)C2=O` (relative stereo) [Example 51, 8-chloro-3-(trans-2-hydroxycyclopentyl)-7-methyl-6-((6-(1H-pyrazol-1-yl)pyridin-3-yl)methyl)-2,3-dihydro-4H-1,3-benzoxazin-4-one], for which the “activity (%) at 10 μM” value was 101% and the EC50 was found to be 9.7 nM.

On to `Cc1c(Cc2ccc(-n3cccn3)cc2)cc2c(c1F)OCN([C@H]1CCC[C@@H]1O)C2=O` (relative stereo) [Example 30, 8-fluoro-3-(trans-2-hydroxycyclopentyl)-7-methyl-6-(4-(1H-pyrazol-1-yl)benzyl)-2,3-dihydro-4H-1,3-benzoxazin-4-one], for which the “activity (%) at 10 μM” value came out at 102% and the EC50 came to 8.6 nM.

For `Cc1cc2c(cc1Cc1ccc(-n3cccn3)nc1)C(=O)N([C@H]1CCC[C@@H]1O)CO2` [Example 14, 3-((1S,2S)-2-hydroxycyclopentyl)-7-methyl-6-((6-(1H-pyrazol-1-yl)pyridin-3-yl)methyl)-2,3-dihydro-4H-1,3-benzoxazin-4-one], the “activity (%) at 10 μM” value is given as 106% and the EC50 worked out at 15 nM.

For `Cc1c(Cc2ccc(C#N)cc2)cc2c(c1C)OCN([C@H]1CCC[C@@H]1O)C2=O` [Example 44, 4-((3-((1S,2S)-2-hydroxycyclopentyl)-7,8-dimethyl-4-oxo-3,4-dihydro-2H-1,3-benzoxazin-6-yl)methyl)benzonitrile], the “activity (%) at 10 μM” value worked out at 99% and the EC50 worked out at 3.9 nM.

On to `Cc1c(Cc2ccc(-n3cccn3)cc2)cc2c(c1C)OCN([C@H]1CCCC[C@@H]1O)C2=O` (relative stereo) [Example 53, 3-(trans-2-hydroxycyclohexyl)-7,8-dimethyl-6-(4-(1H-pyrazol-1-yl)benzyl)-2,3-dihydro-4H-1,3-benzoxazin-4-one], for which the “activity (%) at 10 μM” value stood at 96% and the EC50 turned out to be 11 nM.

On to `Cc1cc2c(cc1Cc1ccc(-n3cccn3)cc1)C(=O)N([C@H]1CCC[C@@H]1O)CO2` [Example 35, 3-((1S,2S)-2-hydroxycyclopentyl)-7-methyl-6-(4-(1H-pyrazol-1-yl)benzyl)-2,3-dihydro-4H-1,3-benzoxazin-4-one], for which the “activity (%) at 10 μM” value is 109% and the EC50 worked out at 5.8 nM.

Regarding `Cc1cc2c(cc1Cc1ccc(Cl)nc1)C(=O)N([C@H]1CCC[C@@H]1O)CO2` [Example 34, 6-((6-chloropyridin-3-yl)methyl)-3-((1S,2S)-2-hydroxycyclopentyl)-7-methyl-2,3-dihydro-4H-1,3-benzoxazin-4-one], the “activity (%) at 10 μM” value came out at 96% and the EC50 turned out to be 53 nM.
